# According to patent publication US9023788B2, “Methods compounds and pharmaceutical compositions for treating anxiety and mood disorders” (New York University, priority 2010, dated 2015):
# Entries after “also recorded” stand apart in the source; their conditions may differ.
# Assays:
# LC α1-adrenoceptors [1] = assay: Novel cage test after LC microinjection; assay type: in vivo, rat
# LC α1-adrenoceptors [2] = assay: Home cage test after LC microinjection; assay type: in vivo, rat
# Description: The animal was brought into the laboratory in its home cage and habituated in this cage beneath the video camera for 3 h prior to being injected. […] Food and water remained on the cage during the test. The longer interval (30 min) was used in the home vs. novel cage test because a low baseline activity was desired, and it was necessary to allow time for the disturbance caused by handling the animal to subside. As in the novel cage test, the home cage tests were repeated for a total of 2-3 tests at weekly intervals with different doses of the agonist. All experiments were carried out between 1100 and 1400 h. Following the last behavioral test, the animals were anesthetized with Nembutal and infused bilaterally with 250 nl of 2% methylene blue. Frozen (unfixed) brain sections were stained with cresyl violet for histological localization of cannula placement.
# Videotapes were rated blind for gross movements (GMs), crosses of the cage midline (cage Xs), rearing responses, and time immobile (TI) by a trained observer. […] This included walks to a wall, rears, turns in place, and stretch and attend responses.
# Animals showing significant dye penetration of the 4th ventricle were excluded from the study. Comparisons between two drug conditions in the novel cage experiment were evaluated by Bonferronicorrected dependent t-tests.
# rats = conditions: cited from earlier work; for antidepressant effect after intracerebral administration: intracerebral infusion/injection
# [3] = in vivo; cited from earlier work
# Swiss Webster male mice [4] = assay: Repeated open space forced swim (RFS) test; conditions: for immobility or distance swum versus vehicle, panel of currently available antidepressants: single acute i.p. dose 15 min prior, FIG. 14
# Swiss Webster male mice [5] = assay: Open field motor activity and anxiety (i.p. dp6FNE/prazosin); assay type: in vivo, mouse; conditions: 1 h; dp6FNE 0.1-3 mg/kg/prazosin; amphetamine 2 mg/kg i.p.
# Description: For purposes of comparison, some animals received instead d-amphetamine, 2 mg/kg, i.p. Total quadrants entered and time in the center area of the field as a ratio to the total distance traveled were rated from videorecordings.
# brain α-adrenoceptors = conditions: cited from earlier work
# Swiss Webster male mice [6] = assay: Acute forced swim test (Porsolt); assay type: in vivo, mouse; conditions: for immobility versus vehicle: second swim, 6FNE ivt. peak dose 3 nmoles, DMI subacute i.p. 10 mg/kg
# [7] = system: Fos expression in LC, PVH, lateral septal nucleus and NAC; assay: Fos immunohistochemistry in stress- and motivation-related brain regions; assay type: in vivo, mouse; conditions: 6FNE 3 nmoles ivt.
# Description: At 70 min after drug infusion all animals were deeply anesthetized with a combination of isoflurane and urethane (2.2 g/kg, i.p.) and perfused intracardially with 4% paraformaldehyde for subsequent immunohistochemistry and histological examination of the cannula tip with respect to the 4th ventricle.
# Immunohistochemistry: Methods used for single and double-label Fos and Fos+tyrosine hydroxylase immunohistochemistry have been described in detail elsewhere (Stone, et al., Brain Research (2009) 1291:21-31). In brief, at 70 min after drug infusion deeply anesthetized (isoflurane plus urethane, 2.2 g/kg) mice were perfused intracardially with saline (25 ml) and 4% paraformaldehyde (45 ml), and the sucrose-treated brains were sectioned at 35 p and stained either singly for Fos (PVH, lateral septal nucleus, shell of nucleus accumbens (NAC)) or doubly for Fos and tyrosine hydroxylase (LC). Rabbit anti-fos (Oncogene Science 1:20,000) and chicken anti-tyrosine hydroxylase (Novus Biologicals, 1:5,000) were primary antibodies. Single-label staining involved nickel intensified-diaminobenzidine localization of the secondary biotinylated antibody and avidin-biotin-peroxidase complex. Double-label staining involved the use of Alexa-488 labeled secondary anti-rabbit and Alexa-594 labeled secondary anti-chicken antibodies. […] In all sections, to preclude biasing in the placement of counting frames, large frames comprising the total two dimensional extent of the target structures were counted for every Fos-positive cell by ImageJ. Double-labeled LC cells were defined as those having a fluorescently labeled cytoplasm (TH) and nucleus (Fos) greater than twice background fluorescence.
# Swiss Webster male mice [8] = assay: Open field motor activity after ivt. infusion; assay type: in vivo, mouse; conditions: 15 min post infusion; 6FNE 3 nmoles ivt.
# Description: Open field motor activity: Implanted mice were placed singly in an open field (46×46×33 cm clear Plexiglas) and permitted to explore freely and habituate for 60 min. The animals were then either left undisturbed in the field or removed and infused with either vehicle or 6FNE (3 nmoles) and replaced in the field for a further 15 min. For comparative purposes a further group of implanted animals, similarly habituated to the field, was given an i.p. injection of d-amphetamine (5 mg/kg) prior to the final 15 min exposure. Movement in the field was videorecorded and was subsequently rated blind for the number of quadrants entered as well as the amount of time spent not touching the walls (“time in the center of the field”).
# [9] = system: Fos expression in LC, PVH, lateral septal nucleus and NAC; conditions: stimulation or blockade of LC α1-receptors (Stone et al. 2011); cited from earlier work
# Swiss Webster male mice [10] = assay: LPS model of depression (anhedonia); assay type: in vivo, mouse
# Description: 1LPS model of depression (anhedonia): A modification of the Frenois et al (2007) model of LPS-induced anhedonia in the mouse was used to obtain a non-motoric index of depressed behavior. In this model, trained mice show a marked decrease in preference for a sweet solution 24-48 h after a systemic dose of LPS (830 μg/kg, i.p.), a time when they have recovered from the sickness behavior and anorexia caused by the acute effects of the toxin. For the model, the animals were first implanted with 4th ventricular cannulas as above and, during the recovery period, trained to drink diluted sweetened condensed milk solution (Magnolia 1:3 v:v milk:tap water) by 15 min presentations every other day for 7-10 d. […] Animals given i.p. injections were dosed 14, 12 and 0.5 h prior to the last test.
# Swiss Webster male mice [11] = assay: Observation for sedation and signs of toxicity; assay type: in vivo, mouse; conditions: intracerebral 6FNE or peripheral dp6FNE, range of behavioral tests
# Source text: Sedation interferes with behavioral performance and is therefore a detrimental side effect to the treatment of major depressive illness in humans.
# Although dp6FNE was designed to be a temporary treatment, it was of interest to determine how long it would remain effective if given repeatedly.
# Swiss Webster male mice [12] = assay: Tail suspension test; assay type: in vivo, mouse; conditions: DMI subacute i.p. 10 mg/kg; for immobility, % vehicle control: 6FNE ivt. 3 nmoles; for immobility versus vehicle: acute ivt. 6FNE or DEX
# [13] = overall effect across depression tests
# [14] = 5th swim, 6FNE ivt. peak dose, DMI subacute i.p. 10 mg/kg
# [15] = 5th swim, acute ivt. 6FNE or DEX, DMI subacute i.p. 10 mg/kg
# [16] = dpEPI 1 mg/kg i.p. in vehicle with prazosin 0.2 mg/kg + propranolol 0.5 mg/kg, 15 min prior
compound,measurement,setting,value
"CNC[C@H](O)c1cccc(O)c1 [PE, phenylephrine]","reversal of terazosin-induced inactivity (GMs, cage Xs, TI)","LC α1-adrenoceptors [1]; PE 10 nmoles/side coinjected with terazosin 3 nmoles/side in LC, 5 rats",completely reverse the terazosin-induced inactivity
same,"GMs and cage Xs, dose-response","LC α1-adrenoceptors [2]; PE 0, 0.03, 0.1, 0.3, 1 nmole/side in LC, 30 min",small dose-dependent increases
same,TI,"LC α1-adrenoceptors [2]; PE 1.0 nmole/side in LC, home cage, 0-15 min",0.98 ± 0.98 min
same,GMS,"LC α1-adrenoceptors [2]; PE 1.0 nmole/side in LC, home cage, 0-15 min, five rats",195.2 ± 25.3
same,% Rears,"LC α1-adrenoceptors [2]; Rears as % of GM, PE 1.0 nmole/side in LC, home cage, 0-15 min",33.5 ± 8.0%
same,% Xs,"LC α1-adrenoceptors [2]; Xs as % of GM, PE 1.0 nmole/side in LC, home cage, 0-15 min",12.3 ± 2.0%
same,anti-immobility effect after systemic administration,"rats; 16 mg/kg, i.p.",only at a near lethal dose
same,antidepressant effect after intracerebral administration,rats,produced antidepressant effects in the forced swim test
"Cc1ccc(N(CC2=NCCN2)c2cccc(O)c2)cc1 [Phentolamine, phentolamine]",passage of the blood brain barrier / uptake by the brain,[3],not taken up by the brain
Clc1cccc(Cl)c1N=C1NCCN1 [clonidine],"immobility or distance swum versus vehicle, panel of currently available antidepressants",Swiss Webster male mice [4],dp6FNE/prazosin (1 mg/kg) was the only agent that either significantly reduced immobility
same,antidepressant effect after intracerebral administration,rats,rapid antidepressant effects
"C[C@H](N)Cc1ccccc1 [amphetamine, d-amphetamine]",motor activity (quadrants entered),Swiss Webster male mice [5],highly significant increase on locomotion
same,relative time in the center of the field,Swiss Webster male mice [5],significantly tended to reduce it
"CNC[C@H](O)c1ccc(O)c(O)c1 [EPI, epinephrine]",agonist efficacy,brain α-adrenoceptors,full agonist
"NCC(O)c1cc(O)c(O)cc1F (stereo not drawn) [6FNE, 6-fluoronorepinephrine]","climbing duration, overall effect","Swiss Webster male mice [6]; ivt. 6FNE dose-response, one-way ANOVA",failed to show statistical significance
same,immobility versus vehicle,Swiss Webster male mice [6],differed significantly from vehicle
same,Fos expression in LC,[7]; [13],significant overall reduction
same,Fos expression in PVH,[7]; [13],significant overall reduction
same,Fos expression in lateral septal nucleus,[7]; p<0.05,overall increase
same,Fos expression in NAC,[7]; p<0.1,overall increase
same,time in the center of the field,Swiss Webster male mice [8],restored this behavior back to the level of the non-handled controls; also recorded: complete rescue
same,total quadrants entered,Swiss Webster male mice [8],no change in activity compared to the non-handled animals; also recorded: completely rescued the activity
same,neural activity of the LC measured from c-Fos expression,[9],virtually complete cessation of the neural activity
same,passage of the blood brain barrier / uptake by the brain,[3],does not pass the blood brain barrier
same,sucrose preference,Swiss Webster male mice [10]; acute ivt. 6FNE 48 h after LPS 830 μg/kg i.p.,rescued by 6FNE
same,sucrose intake,Swiss Webster male mice [10]; acute ivt. 6FNE in LPS-pretreated animals,inverted-U-shaped increase
same,agonist efficacy,brain α-adrenoceptors,only known selective full agonist
same,sedation,Swiss Webster male mice [11],no sedative effect
same,"distance swum, % vehicle control",Swiss Webster male mice [4]; [14],193.4±22.8%
same,"immobility, % vehicle control",Swiss Webster male mice [4]; [14],36.7±9.2%
same,distance swum versus vehicle,Swiss Webster male mice [4]; [15],borderline increase in distance swum
same,immobility versus vehicle,"Swiss Webster male mice [4]; 5th swim, acute ivt. 6FNE or DEX, DMI subacute i.p. 10 mg/kg, 10 mg/kg",only 6FNE was effective; also recorded: dose-dependently reduced immobility
same,antidepressant response compared with ivt PE,"Swiss Webster male mice [4]; single ivt. infusion 0, 1, 3, 10 nmoles, Example 4, expected",more rapid or greater antidepressant response than PE
same,"immobility, % vehicle control",Swiss Webster male mice [12],24.7±7.8%
same,immobility versus vehicle,Swiss Webster male mice [12]; 10 mg/kg,equally effective; also recorded: significant overall reduction in immobility
CCN(CCCl)Cc1ccccc1Br [DSP4],effect of pretreatment on behavioral effects of LC terazosin (novel cage) and PE (home cage),LC α1-adrenoceptors [1]; DSP4 10 days before test,markedly attenuated the behavioral effects
same,effect of pretreatment alone on exploratory activity,"LC α1-adrenoceptors [1]; DSP4 10 days before test, novel or home cages",had no effect on exploratory activity
CNC1(c2ccccc2Cl)CCCCC1=O (stereo not drawn) [ketamine],"immobility or distance swum versus vehicle, panel of currently available antidepressants",Swiss Webster male mice [4],dp6FNE/prazosin (1 mg/kg) was the only agent that either significantly reduced immobility
CNCCC(Oc1ccc(C(F)(F)F)cc1)c1ccccc1 (stereo not drawn) [fluoxetine],"immobility or distance swum versus vehicle, panel of currently available antidepressants",Swiss Webster male mice [4],dp6FNE/prazosin (1 mg/kg) was the only agent that either significantly reduced immobility
CC(NC(C)(C)C)C(=O)c1cccc(Cl)c1 (stereo not drawn) [bupropion],"immobility or distance swum versus vehicle, panel of currently available antidepressants",Swiss Webster male mice [4],dp6FNE/prazosin (1 mg/kg) was the only agent that either significantly reduced immobility
"CNCCCN1c2ccccc2CCc2ccccc21 [DMI, desmethylimipramine]",immobility versus vehicle,Swiss Webster male mice [6],significant reduction in immobility
same,anorexia / sucrose intake after subacute antidepressant,Swiss Webster male mice [10]; subacute i.p. DMI,anorexia and markedly reduced sucrose intakes
same,"immobility, % vehicle control",Swiss Webster male mice [4]; [14],94.8±7.1%
same,distance swum versus vehicle,Swiss Webster male mice [4]; [15],failed to affect immobility or distance swum
same,immobility versus vehicle,Swiss Webster male mice [4]; [15],failed to affect immobility or distance swum
same,effect in repeated open-space swim test,"Swiss Webster male mice [4]; acute i.p., dp6FNE 1, 3, 10 mg/kg with prazosin 0.2 mg/kg, DMI 10 mg/kg, FIG. 5",complete lack of effect
same,"immobility or distance swum versus vehicle, panel of currently available antidepressants",Swiss Webster male mice [4],dp6FNE/prazosin (1 mg/kg) was the only agent that either significantly reduced immobility
same,"immobility, % vehicle control",Swiss Webster male mice [12],64.7±20.7%
same,immobility versus vehicle,Swiss Webster male mice [12],significantly reduced immobility
"CNCC(O)c1ccc(OC(=O)C(C)(C)C)c(OC(=O)C(C)(C)C)c1 (stereo not drawn) [dpEPI, dipivalyl-epinephrine]",distance swum versus vehicle,Swiss Webster male mice [4]; [16],increase in distance swum
same,immobility versus vehicle,Swiss Webster male mice [4]; [16],significant reduction in immobility
